Literature values as cited in patent publication US10781471B2, “NRAS related cancer therapy” (Ruijin Hospital Affiliated to Shanghai Jiao Tong University …, priority 2014, dated 2020).

Test system: acute lymphoblastic leukemia (ALL)
Settings: methotrexate 3.3 mg/m^2 in combination with 60 mg/m^2 of prednisone, given daily; induction in ALL patients

Q: Which results are given for CN(Cc1cnc2nc(N)nc(N)c2n1)c1ccc(C(=O)N[C@@H](CCC(=O)O)C(=O)O)cc1 [methotrexate, Methotrexate]?
A: period within which remission was usually produced: 4 to 6 weeks; remissions, share of patients treated: 50%
